Strand notation (5' to 3'): a small letter for the sugar, then the base; units joined by * are phosphorothioate-linked, units joined directly phosphodiester-linked; [ ] holds rarer units or linkages, { } end groups; capitals alone tell only the bases. k = constrained ethyl (cEt); [5mC] = 5-methylcytosine; d = 2'-deoxy (DNA)
Assays:
Yap1 mRNA [1] = assay: Dose-dependent inhibition of human Yap1 in A-431 cells (Example 8, 10,000 cells per well, RTS4814); type: cell-based; conditions: for % UTC (Yap1 mRNA) / IC50: A-431 cells; for Yap1 mRNA, % UTC: A-431 cells, 10,000 cells per well
Summary of the method: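 Yap1 mRNA, normalized to RIBOGREEN total RNA and expressed as % untreated control, was read with RTS4814 about 48 h after free-uptake oligonucleotide treatment of A-431 cells at 10,000 cells/well. IC50 derived by linear regression of log/linear data.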

Yap1 mRNA [2] = assay: Antisense inhibition of human Yap1 in A-431 cells by cEt gapmers, single dose (Example 3, RTS36584); type: cell-based
Summary of the method: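 Single-dose free-uptake screen of 3-10-3 cEt gapmers in A-431 cells at 2,000 nM over about 48 h. Values are % untreated control Yap1 mRNA.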

[3] = Table 35, Yap1 mRNA as percent of untreated control, 3-10-3 cEt gapmers targeting SEQ ID NO: 1 and 2, single dose
[4] = 31.3 nM, free uptake, approximately 48 hours, RTS4814
[5] = 125.0 nM, free uptake, approximately 48 hours, RTS4814
[6] = 500.0 nM, free uptake, approximately 48 hours, RTS4814
[7] = 2000.00 nM, free uptake, approximately 48 hours, RTS4814
[8] = free uptake, approximately 48 hours, RTS4814, linear regression on log/linear plot
[9] = Table 29, Yap1 mRNA as percent of untreated control, 3-10-3 cEt gapmers targeting SEQ ID NO.: 1, and 2
[10] = Table 26, Yap1 mRNA by 3-10-3 cEt gapmers targeting SEQ ID NO.: 1, and 2, percent of untreated control

Which “% UTC (Yap1 mRNA)” value (Yap1 mRNA [1]; 31.3 nM) does the source give for “1074421 (kT*kG*kA*dT*dT*d[5mC]*dT*dT*dT*dA*dG*dA*dG*k[5mC]*k[5mC]*kA; antisense) [compound 1074421]” here?
The value was 61 % UTC.

What about the “% UTC (Yap1 mRNA)” value (Yap1 mRNA [1]; 125.0 nM) of the same substance?
The value was 29 % UTC.

And the “% UTC (Yap1 mRNA)” value (Yap1 mRNA [1]; 500.0 nM)?
The value was 8 % UTC.

And the “% UTC (Yap1 mRNA)” value (Yap1 mRNA [1]; 2000.00 nM)?
Its value is 5 % UTC.

What about the IC50 (Yap1 mRNA [1]; Yap1 mRNA) of the same substance?
The IC50 was 40 nM.

And the “YAP1 (% UTC)” value (Yap1 mRNA [2]; [3])?
The value was 3 % UTC.

For “1074509 (kT*kG*kT*dT*dA*dT*dG*dT*dT*dT*dG*dG*dG*kT*kG*kT; antisense) [compound 1074509]”, which “Yap1 mRNA, % UTC” value (Yap1 mRNA [1]; [4]) is on record?
Its value is 44 % UTC.

And the “Yap1 mRNA, % UTC” value (Yap1 mRNA [1]; [5])?
Its value is 12 % UTC.

What about the “Yap1 mRNA, % UTC” value (Yap1 mRNA [1]; [6]) of the same substance?
Its value is 6 % UTC.

And the “Yap1 mRNA, % UTC” value (Yap1 mRNA [1]; [7])?
The value was 5 % UTC.

What about the IC50 (Yap1 mRNA [1]; [8]) of the same substance?
The IC50 was < 20 nM.

What about the “YAP1 (% UTC)” value (Yap1 mRNA [2]; Table 27, Yap1 mRNA by 3-10-3 cEt gapmers targeting SEQ ID NO.: 1, and 2, percent of untreated control) of the same substance?
Its value is 5 % UTC.

For “1074447 (kA*kA*kT*dG*dA*dT*dA*dG*d[5mC]*dA*d[5mC]*dT*dA*kG*kG*kA; antisense) [compound 1074447]”, which “Yap1 mRNA, % UTC” value (Yap1 mRNA [1]; [4]) is on record?
Its value is 47 % UTC.

And the “Yap1 mRNA, % UTC” value (Yap1 mRNA [1]; [5])?
Its value is 20 % UTC.

And the “Yap1 mRNA, % UTC” value (Yap1 mRNA [1]; [6])?
Its value is 8 % UTC.

What about the “Yap1 mRNA, % UTC” value (Yap1 mRNA [1]; [7]) of the same substance?
The value was 5 % UTC.

And the IC50 (Yap1 mRNA [1]; [8])?
The IC50 was < 20 nM.

What about the “YAP1 (% UTC)” value (Yap1 mRNA [2]; [9]) of the same substance?
Its value is 4 % UTC.

For “1074508 (kG*kA*kG*dA*dG*dA*dG*d[5mC]*dA*dG*dA*dT*dA*kA*kT*k[5mC]; antisense) [compound 1074508]”, which “Yap1 mRNA, % UTC” value (Yap1 mRNA [1]; [4]) is on record?
Its value is 62 % UTC.

And the “Yap1 mRNA, % UTC” value (Yap1 mRNA [1]; [5])?
Its value is 30 % UTC.

What about the “Yap1 mRNA, % UTC” value (Yap1 mRNA [1]; [6]) of the same substance?
The value was 14 % UTC.

And the “Yap1 mRNA, % UTC” value (Yap1 mRNA [1]; [7])?
Its value is 8 % UTC.

What about the IC50 (Yap1 mRNA [1]; [8]) of the same substance?
The IC50 was 50 nM.

And the “YAP1 (% UTC)” value (Yap1 mRNA [2]; [10])?
The value was 7 % UTC.

“958559 (kA*kA*kT*dT*d[5mC]*dA*d[5mC]*dA*dA*d[5mC]*d[5mC]*dA*dA*k[5mC]*kT*kA; antisense) [Compound 958559]” was tested. Which “YAP1 (% UTC)” value (Yap1 mRNA [2]; Table 12, A-431 cells, 5,000 cells per well, free uptake, 2,000 nM modified oligonucleotide, approx. 48 hours, RTS36584, normalized to RIBOGREEN, Yap1 mRNA relative to untreated control cells) did it give?
The value was 17 % UTC.

How did the “YAP1 (% UTC)” value (Yap1 mRNA [2]; [9]) turn out when “1074991 (antisense kA*kA*kT*dT*dA*dT*dT*dT*dG*dA*d[5mC]*dT*d[5mC]*k[5mC]*k[5mC]*k[5mC]) [compound 1074991]” was run?
Its value is 60 % UTC.

For “958420 (antisense kT*kT*k[5mC]*dA*dT*dA*dA*dT*d[5mC]*dT*dG*dA*d[5mC]*kT*kA*kG) [Compound 958420]”, which “YAP1 (% UTC)” value (Yap1 mRNA [2]; Table 8, A-431 cells, 5,000 cells per well, free uptake, 2,000 nM, approximately 48 hours, RTS36584, normalized to RIBOGREEN, Yap1 mRNA relative to untreated control cells) is on record?
Its value is 66 % UTC.

For “958471 (antisense k[5mC]*kT*kT*dA*dG*dA*dT*d[5mC]*d[5mC]*dT*dT*d[5mC]*dA*k[5mC]*kA*kG) [Compound 958471]”, which “YAP1 (% UTC)” value (Yap1 mRNA [2]; Table 9, A-431 cells, 5,000 cells per well, free uptake, 2,000 nM, approximately 48 hours, RTS36584, normalized to RIBOGREEN, Yap1 mRNA relative to untreated control cells) is on record?
Its value is 14 % UTC.

With “1075284 (antisense k[5mC]*kT*kT*dT*dT*d[5mC]*dG*dA*dA*dT*dA*dT*dA*kG*kA*kA) [compound 1075284]” as the substance, how does the “YAP1 (% UTC)” value (Yap1 mRNA [2]; Table 34, Yap1 mRNA as percent of untreated control, 3-10-3 cEt gapmers targeting SEQ ID NO: 1 and 2, single dose) read?
Its value is 76 % UTC.

Which “YAP1 (% UTC)” value (Yap1 mRNA [2]; [3]) does the source give for “1075125 (k[5mC]*kT*kT*dA*dA*dG*dG*dT*dA*d[5mC]*dA*dA*dG*kG*k[5mC]*kA; antisense) [compound 1075125]” here?
Its value is 84 % UTC.

With “1075372 (antisense kA*kT*kA*dT*dA*dT*dA*dG*dA*d[5mC]*dT*dT*dG*kA*kG*kA) [compound 1075372]” as the substance, how does the “YAP1 (% UTC)” value (Yap1 mRNA [2]; [10]) read?
Its value is 27 % UTC.

Which “YAP1 (% UTC)” value (Yap1 mRNA [2]; Table 13, A-431 cells, 5,000 cells per well, free uptake, 2,000 nM modified oligonucleotide, approx. 48 hours, RTS36584, normalized to RIBOGREEN, Yap1 mRNA relative to untreated control cells) does the source give for “958765 (antisense kG*kT*kA*d[5mC]*dA*dG*dG*dA*dG*dA*dG*dA*dT*kT*kG*k[5mC]) [Compound 958765]” here?
The value was 37 % UTC.
